Laboratory results: publication PMC11310079, “Commensal production of a broad-spectrum and short-lived antimicrobial peptide polyene eliminates nasal Staphylococcus aureus” (Nature Microbiology, 2023)

Key:
S. aureus USA300 LAC = test: Stability analysis of epifadin (bioactivity by agar diffusion after incubation); type: physicochemical, Staphylococcus aureus; conditions: lugdunin 70 µg/ml in TSB, 37 °C, pH 7, light, r4-r10 = 0-6 h
Protocol: Fig. 2 High instability of epifadin under in vivo-like conditions. S. epidermidis IVK83 culture supernatants containing epifadin were precipitated with HCl, freeze-dried and extracted with DMSO. This extract was diluted in TSB, incubated for the indicated time periods with constant shaking under the respective conditions and subsequently tested for activity towards S. aureus USA300 LAC. a, Stability of epifadin compared with other antibacterial agents under standard laboratory conditions (37 °C, pH 7, laboratory light exposure). b, In vivo-like conditions with laboratory light exposure at pH 7 (nasal condition) or pH 5.5 (skin condition) and reduced temperatures; incubation of epifadin under exclusion from light enabled further purification and activity determination. Conditions at pH 7, 37 °C and 0 h were used as reference for 100% stability. Data shown represent the mean ± s.d. of three independent experiments. Source data
The effect of different incubation conditions on the bioactivity of epifadin was analysed by agar diffusion assays on lawns of the sensitive indicator strain S. aureus USA300 LAC. To this end, liquid TSA was inoculated with an overnight culture of USA300 at an OD600 of 0.00125. After solidification of the agar, a cork borer was used to punch wells into the agar with 5 mm diameter. TSB media with 50 mM sodium citrate (pH 5 and 6) or 50 mM tris(hydroxymethyl)aminomethane (pH 8 and 9) were prepared. Epifadin-containing precipitate was dissolved in DMSO (12 mg ml^−1), and insoluble particles were removed by centrifugation. The supernatant was added to the prepared TSB media at a final concentration of 750 µg precipitate per millilitre (37.5 µg in 50 µl). Media were incubated for 6 h at 21 °C, 30 °C or 37 °C with or without laboratory light exposure and constant shaking at 500 rpm in a thermomixer (Eppendorf). As controls, 70 µg ml^−1 (3.5 µg in 50 µl) lugdunin, 24 µg ml^−1 (1.2 µg in 50 µl) gallidermin and 100 µg ml^−1 (5 µg in 50 µl) nisin were used. At different timepoints, 50 µl of each sample was pipetted into the wells of the agar plates. After incubation at 37 °C overnight, zones of inhibition were analysed with ImageJ software (version 1.8.0_112).

S. aureus USA300LAC = test: Determination of the IC (miniaturized agar diffusion assay); type: cell-based, Staphylococcus aureus; conditions: agar diffusion on inoculated TSA, 35 µl in 4-mm wells, 24 h 37 °C dark; IC from inhibited agar volume at lowest active amount
Protocol: (§1) Instead, a miniaturized assay was developed. Molten TSA, kept below 42 °C, was inoculated with different test strains at an OD600 of 0.00125. Then, 17.5 ml was poured into Petri dishes, resulting in agar layers of ~3.16 mm thickness. After solidification, a cork borer was used to punch wells of 4-mm diameter into the agar. Thirty-five microlitres of purified epifadin in DMSO–PA (2.4 µg, 1.2 µg, 0.6 µg, 0.3 µg, 0.15 µg and 0.075 µg) was pipetted into the wells, and agar plates were incubated for 24 h at 37 °C in the dark. Diameters of the zones of inhibition were measured and the volume containing the inhibitory epifadin concentration was calculated, using the following formula for cylinder volume: Vc=πxr^2xhVc=cylindervolumeVi=πrz2xha−(πrw2xha)Vi=inhibitedvolumerz2=radius(diameter/2)zoneofinhibitionrw2=radius(diameter/2)ofwellha=heightofagar
(§2) The volume of agar showing inhibition of the test strain was then correlated with the included amount of epifadin, and the epifadin concentration necessary to inhibit test strain growth in a 1 ml volume was calculated to yield IC values. If, for example, 2.4 µg of epifadin lead to an inhibited volume of 480 µl, to inhibit a volume of 1 ml, 5 µg epifadin is needed, which corresponds to an IC of 5 μg ml^−1. These calculations were conducted for the lowest amount of epifadin that led to a zone of inhibition to minimize the necessary epifadin amounts and the calculation error due to the gradient within the inhibition zone. As a control, the same assay was used to determine the IC for vancomycin, daptomycin and lugdunin under these conditions.

S. aureus USA300 JE2 = test: as above; type: cell-based, Staphylococcus aureus; conditions: agar diffusion on inoculated TSA, 24 h 37 °C dark; IC from inhibited agar volume
Protocol: as §1, §2

[1] = cited from earlier work
Source text: To our knowledge, the combination of peptide–polyene–tetramic acid moieties is unique to epifadin. […] In contrast to the ionophore act ...

Lugdunin
stability (remaining antimicrobial activity, 0 h = 100%) (S. aureus USA300 LAC; experiment 1 of 3, after 1 h incubation): 83.34%
stability (remaining antimicrobial activity, 0 h = 100%) (S. aureus USA300 LAC; experiment 1 of 3, after 2 h incubation): 75.95%
stability (remaining antimicrobial activity, 0 h = 100%) (S. aureus USA300 LAC; experiment 1 of 3, after 3 h incubation): 68.18%
stability (remaining antimicrobial activity, 0 h = 100%) (S. aureus USA300 LAC; experiment 1 of 3, after 4 h incubation): 72.38%
stability (remaining antimicrobial activity, 0 h = 100%) (S. aureus USA300 LAC; experiment 1 of 3, after 5 h incubation): 65.52%
stability (remaining antimicrobial activity, 0 h = 100%) (S. aureus USA300 LAC; experiment 1 of 3, after 6 h incubation): 61.66%
stability (remaining antimicrobial activity, 0 h = 100%) (S. aureus USA300 LAC; experiment 2 of 3, after 1 h incubation): 81.19%
stability (remaining antimicrobial activity, 0 h = 100%) (S. aureus USA300 LAC; experiment 2 of 3, after 2 h incubation): 74.91%
stability (remaining antimicrobial activity, 0 h = 100%) (S. aureus USA300 LAC; experiment 2 of 3, after 3 h incubation): 69.51%
stability (remaining antimicrobial activity, 0 h = 100%) (S. aureus USA300 LAC; experiment 2 of 3, after 4 h incubation): 68.58%
stability (remaining antimicrobial activity, 0 h = 100%) (S. aureus USA300 LAC; experiment 2 of 3, after 5 h incubation): 65.27%
stability (remaining antimicrobial activity, 0 h = 100%) (S. aureus USA300 LAC; experiment 2 of 3, after 6 h incubation): 69.75%
stability (remaining antimicrobial activity, 0 h = 100%) (S. aureus USA300 LAC; experiment 3 of 3, after 1 h incubation): 81.54%
stability (remaining antimicrobial activity, 0 h = 100%) (S. aureus USA300 LAC; experiment 3 of 3, after 2 h incubation): 76.22%
stability (remaining antimicrobial activity, 0 h = 100%) (S. aureus USA300 LAC; experiment 3 of 3, after 3 h incubation): 72.30%
stability (remaining antimicrobial activity, 0 h = 100%) (S. aureus USA300 LAC; experiment 3 of 3, after 4 h incubation): 70.84%
stability (remaining antimicrobial activity, 0 h = 100%) (S. aureus USA300 LAC; experiment 3 of 3, after 5 h incubation): 67.83%
stability (remaining antimicrobial activity, 0 h = 100%) (S. aureus USA300 LAC; experiment 3 of 3, after 6 h incubation): 62.11%
IC* (S. aureus USA300LAC): 7.3 µg/mL
IC* (S. aureus USA300 JE2): 8.5 µg/mL

CC(=O)C1=C(O)[C@@H](CC(C)C)NC1=O [mutanocyclin]
antimicrobial activity [1]: not antimicrobial

CCCCCCC/C=C/C(=O)N1C(O)=C(C(C)=O)C(=O)[C@H]1CC(C)C [reutericyclin A]
antimicrobial activity [1]: antimicrobial
